This note sets out measurements from US20020058628A1, “Antioxidants and intracellular glutathione raising agents for therapeutic treatments” (priority 1998, published 2002).

One experiment relates to oligodendrocytes. The experiment can be described thus: Rescue of purified oligodendrocytes from apoptosis induced by switch to DMEM alone (trophic factor withdrawal). The conditions noted are these: for enhancement of survival factor (IFN-γ) activity compared with NAC: co-exposure with survival factor.
In the next experiment the test system is spinal ganglion neurons. The experiment can be described thus: Neurite outgrowth of spinal ganglion neurons on laminin or L1. It is filed as cell-based, rat. The note with it: 24 hours, NGF added. The text has this: To determine whether compounds that are able to raise intracellular thiol levels are able to enhance the efficacy of yet a different group of cellular signaling systems, we examined the effects of NAC supplementation on the promotion of neurite outgrowth by laminin and by L1. We first determined suboptimal concentrations for the effect of these cellular adhesion molecules, which were attached to tissue culture plastic surfaces in two different manners. Laminin was directly attached to the tissue culture surface with a cross-linking chemistry that preserves the structure of extracellular matrix molecules. L1 was attached as a dimer chimera, cross-linked by an Fc region from a human immunoglobulin molecule, by first adsorbing to the plastic surface an antibody directed against the human immunoglobulin Fc domain, followed by absorption of the L1 dimer to this surface. To promote neuronal survival, nerve growth factor (NGF), the survival factor of the spinal ganglion neurons used in this experiment, was also added at different concentrations. […] After 24 hours cultures were stained with an antibody to beta-III-tubulin and neurite length per neuron was measured.

The next experiment concerns 0-2A progenitor cells. Briefly: PDGF-induced division of purified 0-2A progenitor cells (BrdU incorporation, total cell number). The experiment is classed as cell-based, rat. As to the method: The effect of NAC on generation of 0-2A progenitors and oligodendrocytes was examined in cultures of purified 0-2A progenitors (prepared as in Example IA) exposed to platelet-derived growth factor (PDGF), the best-characterized mitogen for 0-2A progenitor cells.
NAC enhances the division-inducing effects of platelet-derived growth factor (PDGF). Purified 0-2A progenitor cells were plated on PLL-coated coverslips at a density of 3,000 cells per cover slip and exposed to PDGF (a known mitogen for these cells) at the indicated concentrations. In addition, cells were exposed to NAC at a variety of concentrations; the effects of 1 mM NAC are illustrated.
As shown previously, induction of DNA synthesis and increases in cell number by PDGF was dose-dependent.
(In general: Incorporation of labelled thymidine or its analogues reports DNA synthesis.)

Experiment [1] has as its system embryonic sensory neurons. Briefly: Rescue of embryonic sensory neurons from apoptosis by NGF+NAC. It is filed as cell-based. The conditions noted are these: NAC + 1 or 10 ng/ml NGF on days 1 and 2, labeled on day 3; depending on NAC and NGF concentrations. On the procedure: Cultures of embryonic sensory neurons were generated according to methods described in Groves et al., Dev. Biol., 159:87-104, (1993), the contents of which are incorporated herein by reference. The cells were exposed to sub-optimal doses of NGF. As shown in FIG. 4 cultures exposed to NAC and either 1 or 10 ng/ml NGF on days 1 and 2 and labeled on day 3 contained 300-1000% more neurons than those exposed to NGF alone, depending upon the concentrations of NAC and NGF applied.
Neurons were defined by morphology and by labeling with the TUJI antibody against β-tubuli (Groves, A. K., et al., Dev. Biol., 159:87-104 (1993); Moody, S. Q., et al., J. Comp. Neurol., 279:567-580 (1989)) cultures were in DMEM-BS. There was no BrdU labeling of neurons, nor was there any correlation between the extent of BrdU labeling in non-neuronal populations and the number of neurons present (data not shown). Analysis of DNA synthesis by BrdU incorporation (Gatzner, H. G., et al., Science, 318:474-475 (1982) confirmed that this increase in neuronal number was not due to cell division, strongly implicating differential cell death as the reason for the difference.
Values shown are means+/−SD for quadruplicate coverslips from the one of four experiments, all of which yielded similar results.

A further experiment relates to embryonic kidney cells. The experiment can be described thus: EGF-induced proliferation of embryonic kidney cells. It is filed as cell-based, rat. The conditions noted are these: all EGF concentrations examined. On the procedure: FIG. 7 was analyzed as for FIG. 1(B), but used embryonic kidney cells. The cells grown in the 96-well trays were derived by dissociation of kidney rudiments from 11 days embryonic rats. Cells were grown in DMEM-BDS+/−epidermal growth factor (at the concentrations indicated)+/−NAC.

“Also recorded” adds a separate entry of the source.

Experimental for oligodendrocytes: After 3 days of growth in DMEM-BS, the resulting cultures of pure oligodendrocytes were switched to DMEM alone, a condition that induces apoptosis unless cells are exposed to appropriate growth factors.
Cells were then switched to DMEM alone, supplemented with 10, 50 or 500 u/ml of interferon-γ, and the number of surviving cells present after a further three days was determined by MTT staining.
After 3 days in DMEM-BS, the resulting cultures of pure oligodendrocyte were switched to DMEM alone to which was added progesterone+/−1 mM NAC (FIG. 9).
After 3 days in DMEM-BS, the resulting cultures of pure oligodendrocytes were switched to DMEM alone to which was added 10 μM Trolox+/−1 mM NAC (FIG. 10).
After 3 days in DMEM-BS, the resulting cultures of pure oligodendrocyte were switched to DMEM alone to which was added (a) progesterone (63 ug/ml)+NAC (1 mM)+trolox (100 uM)+Vitamin C (10 uM) (“combination”) or (b) CNTF (10 ng/ml)+IGF-1 (50 ng/ml)+NT-3 (5 ng/ml) (“combination”).
In all conditions, the 100% value corresponds to the cell survival seen in cultures of oligodendrocyte not subjected to trophic factor withdrawal.
After 3 days in DMEM-BS, the resulting cultures of pure oligodendrocytes were switched to DMEM alone to which was added progesterone.
Purified oligodendrocytes were generated and grown as in previous examples. 3 days after plating, cells were switched either directly to the indicated conditions (open bars) or were first switched to DMEM alone for 24 hr before the indicated factors were added in an attempt to rescue the cells (black bars). Cells were counted 3 days after switch to the indicated conditions.

Regarding `CC(=O)N[C@@H](CS)C(=O)O` [NAC, N-acetylcysteine], the “extent of survival, NAC in combination with Trolox” value in the experiment on oligodendrocytes (1 mM NAC + 10 μM Trolox, DMEM alone, 3 days) was “highly significant increases (**)”. In addition, the “extent of survival, NAC in combination with Vitamin C” value in the experiment with oligodendrocytes (1 mM NAC + Vitamin C, DMEM alone, 3 days) is reported as “highly significant increases (**)”. Further, in the experiment on oligodendrocytes (1 mM NAC + progesterone, DMEM alone, 3 days, no RTK/RawTK agonists), the “extent of survival, NAC in combination with progesterone” value is listed as “highly significant increases (**)”. Further, the “extent of survival with CNTF in presence of NAC versus CNTF by itself” value in the experiment with oligodendrocytes (1 mM NAC + various concentrations of CNTF, DMEM alone, 3 days) was “significant increases”. Moreover, the “extent of survival with IGF-1 in presence of NAC versus IGF-1 by itself” value with oligodendrocytes (1 mM NAC + various concentrations of IGF-1, DMEM alone, 3 days) is on record as “significant increases”. Further, in the experiment on oligodendrocytes (1 mM NAC alone, DMEM alone, 3 days), the “cell survival with NAC alone” value is listed as “did not promote oligodendrocyte survival; also recorded: did not promote cell survival”. The “oligodendrocyte survival, cells switched directly to the indicated conditions” value in the experiment on oligodendrocytes (Example I-(L), counted 3 days after switch) is listed as “not effective at supporting oligodendrocyte survival”. In addition, in the experiment with oligodendrocytes (NAC 1 mM alone), the “Survival (as % of DMEM-BS control)” value was 2 ± 1%. Further, in the experiment on oligodendrocytes (NAC 1 mM together with IFN-γ), the “extent of survival obtained with IFN-γ when NAC is applied together” value was “dramatically enhanced the extent of survival obtained”. The “neurite length on L1 with NAC versus without NAC” value in the experiment on spinal ganglion neurons (L1 2 micrograms/ml plating concentration) was “enhanced”. Besides, the “neurite length on laminin with NAC versus without NAC” value in the experiment on spinal ganglion neurons (laminin 2 micrograms/ml plating concentration) is reported as “enhanced”. In the experiment with 0-2A progenitor cells (1 mM NAC + PDGF), the “ability of PDGF to induce DNA synthesis (BrdU incorporation) on addition of NAC” value is “marked increase” and the “total number of cells generated by PDGF-induced cell division on addition of NAC” value is on record as “marked increase”. Besides, the “induction of cell division by NAC alone” value with 0-2A progenitor cells (NAC alone, BrdU incorporation and total cell number) is listed as “had no effect on the induction of cell division”. In addition, in experiment [1], the “more neurons than with NGF alone” value was 300-1000%. The “effect of NAC on EGF-induced proliferation (cell number)” value in the experiment on embryonic kidney cells is reported as “enhanced the proliferative effects of EGF”.

Turning to `Cc1c(C)c2c(c(C)c1O)CCC(C)(C(=O)O)O2` (centres unmarked) [Trolox], in the experiment with oligodendrocytes (Trolox 100 uM alone), the “Survival (as % of DMEM-BS control)” value was 6 ± 5%. The “enhancement of survival factor (IFN-γ) activity compared with NAC” value in the experiment on oligodendrocytes was “similar, but lesser effects”.

In the case of `CC(=O)[C@H]1CC[C@H]2[C@@H]3CCC4=CC(=O)CC[C@]4(C)[C@H]3CC[C@]12C` [Progesterone, progesterone], the “Survival (as % of DMEM-BS control)” value is listed as 4 ± 1% in the experiment with oligodendrocytes (Progesterone 6.3 ng/ml alone) and 0% in the experiment on oligodendrocytes (Progesterone .63 ng/ml alone).

On to PDGF, for which, in the experiment on 0-2A progenitor cells (PDGF at the indicated concentrations), the “induction of DNA synthesis and increases in cell number by PDGF” value is given as “dose-dependent”.

For the molecule “IGF-I: oligodendrocyte survival factor, growth factor”, the “Survival (as % of DMEM-BS control)” value with oligodendrocytes (IGF-I 0.1 ng/ml, DMEM alone, 3 days) is reported as 1 ± 1%.

Regarding `O=C1O[C@H]([C@@H](O)CO)C(O)=C1O` [Vitamin C], the “Survival (as % of DMEM-BS control)” value in the experiment with oligodendrocytes (10 uM Vit C alone, Example I(J), DMEM alone, 3 days) is 2 ± 3%; in the experiment on oligodendrocytes (VitC 10 uM alone, Example I(K)), 1 ± 1%. Also, in the experiment with oligodendrocytes, the “enhancement of survival factor (IFN-γ) activity compared with NAC” value was “similar, but lesser effects”.

B1: interferon-γ: interferon-gamma, survival factor for oligodendrocytes (protein, UniProt P01579 24-161, looked up)
Interferon gamma: QDPYVKEAENLKKYFNAGHSDVADNGTLFLGILKNWKEESDRKIMQSQIVSFYFKLFKNFKDDQSIQKSVETIKEDMNVKFFNSNKKKRDDFEKLTNYSVTDLNVQRKAIHELIQVMAELSPAAKTGKRKRSQMLFRG
With B1, the “oligodendrocyte survival with interferon-γ” value in the experiment with oligodendrocytes (10, 50 or 500 u/ml, DMEM alone, 3 days, MTT staining) was “promoted oligodendrocyte survival in a dose-dependent manner”.
